In the supplement of paper PMC10307832:

Experiments:
Assay in all cases: relative viability (nuclei count vs DMSO), 5 days (fraction); higher = more cells survive
AZD5582 + Linsitinib = compound: C[C@@H](C(=O)N[C@@H](C1CCCCC1)C(=O)N2CCC[C@H]2C(=O)N[C@@H]3[C@@H](CC4=CC=CC=C34)OCC#CC#CCO[C@@H]5CC6=CC=CC=C6[C@@H]5NC(=O)[C@@H]7CCCN7C(=O)[C@H](C8CCCCC8)NC(=O)[C@H](C)NC)NC [AZD5582] + C[C@]1(O)C[C@@H](c2nc(-c3ccc4ccc(-c5ccccc5)nc4c3)c3c(N)nccn32)C1 [Linsitinib] (partner 1 µM)
How it was run: (§1)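 Medians of duplicate plates are given as relative viability. That measure is the nuclei count in treated wells divided by the count in vehicle wells. Counts were taken on 4× images of lung cancer cell lines in 1536-well plates, 5 days after pin-tool dosing the day after seeding with one drug alone or a fixed anchor-drug dose plus five library-drug doses (not always all listed) in √10 steps.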

[1] = compound: Cn1nnc2c(C(N)=O)ncn2c1=O [Temozolomide] + C[C@@H](Oc1cc(-c2cnn(C3CCNCC3)c2)cnc1N)c1c(Cl)ccc(F)c1Cl [Crizotinib] (partner 1 µM)
How it was run: as §1

[2] = compound: Cn1nnc2c(C(N)=O)ncn2c1=O [Temozolomide] + Nc1nc2[nH]cc(CCc3ccc(C(=O)N[C@@H](CCC(=O)O)C(=O)O)cc3)c2c(=O)[nH]1 [Pemetrexed] (partner 0.2 µM)
How it was run: as §1

Temozolomide + Olaparib = compound: Cn1nnc2c(C(N)=O)ncn2c1=O [Temozolomide] + O=C(c1cc(Cc2n[nH]c(=O)c3ccccc23)ccc1F)N1CCN(C(=O)C2CC2)CC1 [Olaparib] (partner 8 µM)
How it was run: as §1

| Cell Line | relative viability (AZD5582 + Linsitinib; first compound 0.001581 µM) | relative viability (AZD5582 + Linsitinib; first compound 0.005 µM) | relative viability (AZD5582 + Linsitinib; first compound 0.01581 µM) | relative viability (AZD5582 + Linsitinib; first compound 0.05 µM) | relative viability ([1]; first compound 0.2 µM) | relative viability ([1]; first compound 0.6325 µM) | relative viability ([1]; first compound 2 µM) | relative viability ([1]; first compound 6.325 µM) | relative viability ([1]; first compound 20 µM) | relative viability ([2]; first compound 0.2 µM) | relative viability ([2]; first compound 0.6325 µM) | relative viability ([2]; first compound 2 µM) | relative viability ([2]; first compound 6.325 µM) | relative viability ([2]; first compound 20 µM) | relative viability (Temozolomide + Olaparib; first compound 0.2 µM) | relative viability (Temozolomide + Olaparib; first compound 0.6325 µM) | relative viability (Temozolomide + Olaparib; first compound 2 µM) | relative viability (Temozolomide + Olaparib; first compound 6.325 µM) | relative viability (Temozolomide + Olaparib; first compound 20 µM) |
| --- | --- | --- | --- | --- | --- | --- | --- | --- | --- | --- | --- | --- | --- | --- | --- | --- | --- | --- | --- |
| NCI-H1975 | 1.08 | 1.04 | 1.01 | 1.25 | 1.02 | 0.948 | 1.06 | 0.92 | 0.956 | 0.307 | 0.323 | 0.319 | 0.299 | 0.289 | 0.779 | 0.77 | 0.798 | 0.744 | 0.699 |
| NCI-H647 | 1.1 | 1.01 | 1.25 | 0.934 | 1.3 | 1.1 | 1.09 | 0.85 | 0.318 | 0.169 | 0.17 | 0.2 | 0.146 | 0.122 | 0.721 | 0.616 | 0.5 | 0.176 | 0.0916 |
| NCI-H838 | 0.973 | 0.968 | 0.842 | 1 | 0.876 | 0.888 | 0.894 | 0.808 | 0.869 | 0.247 | 0.256 | 0.254 | 0.252 | 0.233 | 0.785 | 0.776 | 0.818 | 0.719 | 0.687 |
| LCLC-103H | 1.06 | 1.33 | 1 | 1.19 | 1.03 | 1.04 | 1.08 | 1.05 | 1.05 | 0.467 | 0.461 | 0.519 | 0.465 | 0.515 | 0.82 | 0.79 | 0.85 | 0.731 | 0.617 |
| NCI-H2087 | 0.879 | 0.948 | 0.961 | 0.902 | 0.898 | 0.74 | 0.892 | 0.803 | 0.871 | 0.624 | 0.667 | 0.663 | 0.676 | 0.696 | 0.698 | 0.723 | 0.698 | 0.502 | 0.378 |
| NCI-H322M | 0.871 | 1.13 | 0.887 | 1.02 |  | 0.976 | 1 | 0.882 | 0.715 | 0.56 | 0.591 | 0.635 | 0.499 | 0.536 | 0.671 | 0.734 | 0.727 | 0.692 | 0.555 |
| PC-14 | 0.895 | 1.02 | 0.902 | 0.958 | 0.954 | 0.902 | 0.829 | 0.812 | 0.732 | 0.138 | 0.12 | 0.138 | 0.145 | 0.14 | 0.279 | 0.371 | 0.228 | 0.171 | 0.153 |
| NCI-H460 | 0.722 | 0.895 | 0.88 | 1.04 | 0.963 | 0.784 | 0.973 | 0.861 | 0.888 | 0.0579 | 0.0556 | 0.0638 | 0.0585 | 0.0573 | 0.488 | 0.47 | 0.366 | 0.317 | 0.214 |
| SK-LU-1 | 0.613 | 0.495 | 1.23 | 0.273 | 0.978 | 1.06 | 0.92 | 0.518 | 0.463 | 1.06 | 1.01 | 0.875 | 0.495 | 0.522 | 0.428 | 0.446 | 0.416 | 0.292 | 0.203 |
| H3255 | 0.81 | 0.975 | 0.839 | 0.893 |  | 0.822 | 0.795 | 0.798 | 0.179 |  | 0.544 | 0.59 | 0.543 | 0.336 |  | 0.554 | 0.565 | 0.477 | 0.345 |
| NCI-H1355 | 0.774 | 0.829 | 0.788 | 0.96 | 1.11 | 1.13 | 1.09 | 1.11 | 0.97 | 1.01 | 1.03 | 0.963 | 1 | 0.998 | 0.743 | 0.753 | 0.723 | 0.646 | 0.617 |
| NCI-H661 | 0.469 | 0.552 | 0.58 | 0.682 | 0.828 | 0.93 | 0.942 | 0.944 | 1.02 | 0.92 | 0.882 | 1.01 | 0.858 | 0.759 | 0.744 | 0.735 | 0.731 | 0.634 | 0.551 |
| SK-MES-1 | 1.1 | 1.16 | 1.04 | 1.17 | 1.14 | 0.969 | 1.03 | 0.947 | 0.997 | 1.01 | 0.911 | 0.975 | 0.92 | 0.866 | 0.824 | 0.632 | 0.648 | 0.532 | 0.414 |
| EPLC-272H | 0.624 | 0.717 | 0.984 | 0.229 | 0.851 | 0.986 | 0.925 | 0.962 | 0.728 | 0.321 | 0.322 | 0.356 | 0.247 | 0.317 | 1.13 | 0.739 | 0.833 | 0.914 | 0.49 |
| NCI-H596 | 1.28 | 0.503 | 1.08 | 0.246 | 1.07 | 0.978 | 1.06 | 1.04 | 0.884 | 0.515 | 0.535 | 0.621 | 0.465 | 0.574 | 0.685 | 0.694 | 0.764 | 0.677 | 0.657 |
| 201T | 1.03 | 1.18 | 0.995 | 1.27 | 1.02 | 1.09 | 1.08 | 0.834 | 0.986 | 0.346 | 0.345 | 0.398 | 0.339 | 0.316 | 0.843 | 0.891 | 0.884 | 0.809 | 0.742 |
| LU99A | 0.575 | 0.622 | 0.525 | 0.752 | 0.592 | 0.601 | 0.6 | 0.557 | 0.515 | 0.208 | 0.179 | 0.175 | 0.185 | 0.252 | 0.285 | 0.258 | 0.295 | 0.155 | 0.119 |
